Where two headings read alike, the source gives them in different places.
What was measured:
[1] = tested on: viruses; conditions: New York Blood Center (Ben-Hur); cited from earlier work
[2] = tested on: L5178Y cells; assay: Induction of apoptosis (DNA fragmentation) in L5178Y-R cells (Table 6); format: cell-based, mouse; conditions: for induction of apoptosis: 1 μM at a fluence of 30 kJ/m^2; for Minimum Demonstrated Condition to induce apoptosis: C × F / Minimum Demonstrated Condition to induce apoptosis: Fluence: 0.5 μM
Outline: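 Exponentially growing mouse lymphoma L5178Y-R cells loaded 18 hours with phthalocyanine at various concentrations, then irradiated with >600 nm red light (up to 30 kJ/m^2, ~74 W/m^2). DNA isolated 2 hours post-PDT, run on 1.5% agarose; value is minimum PDT dose (concentration × fluence) giving visible DNA ladder.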

[3] = tested on: V79 cells; assay: Uptake of additional phthalocyanines into V79 cells (Table 2); conditions: for Uptake into V79 cells: 18 hours
Protocol: (§3) V79 cells Chinese hamster lung fibroblasts were cultured using the cell culture methods described above. […] When the filters were dry, the phthalocyanines were extracted into ethanol and the absorption determined at the peak wavelength, usually 668 nm.

[4] = tested on: V79 cells; assay: Clonogenicity, killing of V79 cells using photodynamic therapy (Table 3); format: cell-based, Chinese hamster
Outline: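 V79 Chinese hamster lung fibroblasts were loaded with 0.5 or 1.0 μM phthalocyanine, then about 18 h later irradiated with increasing doses of 675 nm broad-band red light (tungsten-halogen lamp, 600 nm high-pass filter). Recorded value is the light dose killing 90% of cells, or, failing that, the maximum kill (% survival) and its dose.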

[5] = tested on: V79 cells
Protocol: as §3

[6] = white light
[7] = Solubility
[8] = tested on: Chinese hamster V79-379 cells; assay: Clonogenic cell survival / photocytotoxicity in V79 cells (Table 1, FIG. 1, FIG. 2); format: cell-based
Protocol: FIG. 1 is a graph illustrating the photodynamic efficacy of the various compositions of the present invention in comparison to AlPcCl. The phthalocyanine composition compounds of the present invention were tested for their photodynamic efficiency against Chinese hamster fibroblast V79 cells by colony formation. Monolayer cultures were treated with the indicated phthalocyanine composition for 18 hours, irradiated with various fluences of red light, and immediately trypsinized and replated at appropriate aliquots in triplicate. Colonies of at least 50 cells were counted after 7-10 days. The plating efficiency of the untreated cells was approximately 90%.
In this regard, in FIG. 2 the data of FIG. 1 were replotted as a function of the product of the amount of cell-associated phthalocyanine and the light fluence.
(§1) Chinese hamster V79-379 lung fibroblasts were grown in monolayer culture in McCoy's 5A medium (Gibco Laboratories, Grand Island, N.Y.) augmented with 10% calf serum and buffered with 20 mM HEPES (pH 7.4).
(§2) The cells were treated with 1 μM AlPcCl (from Eastman Kodak, Rochester, N.Y.) or with phthalocyanine compositions I-VI (0.5-1.0 μM final concentration in the medium) for 18 hours by adding the appropriate volume of a 1.0 mM stock solution in dimethylformamide (DMF) to the culture medium. The growth medium was replaced with 4 ml Hank's balanced salt solution (HBSS), and the cells were irradiated. The light source was a 500 W tungsten-halogen lamp located approximately 29 inches below the surface of a glass exposure tray. The visible light administered to the cells was filtered to allow passage of only that portion of the visible spectrum above 600 nm (Lee Primary red filter No. 106, Vincent Lighting, Cleveland, Ohio). The fluence rate was approximately 0.074 kJ/m^2 /s at the level of the cell monolayer.
Cells were irradiated at a density of approximately 2×10^6 per 25 cm^2 flask. Immediately after irradiation, the cell monolayer was treated with trypsin, and appropriate aliquots were plated in triplicate to give 100 to 200 colonies in each 10-cm Petri dish. Cell survival was determined by the ability of the cells to form colonies containing at least 50 cells. The response of cells treated with 1 μM AlPcCl and light was compared in each experiment.
Photocytotoxicity of the phthalocyanines compounds I to VI was also assessed by clonogenic assay (Table 1, FIG. 1). In all experiments, 1 μM AlPcCl was included for comparison purposes. From the survival curves (FIG. 1), the fluence reducing the cell survival to 10% (F10) was obtained. The ratio of the F10 for AlPcCl and the F10 for the test compound is recorded in Table 1.
In order to take differences in cellular uptake into consideration in the assessment of the relative efficiency of these phthalocyanines as photosensitizers of V79 cells, the survival data were replotted against the product of intracellular phthalocyanine concentration and light fluence (FIG. 2). From these curves, the product of intracellular concentration and light fluence reducing survival to 10% (CF10) was obtained, and comparisons of the values for AlPcCl and the test compounds are recorded in Table 1.

[9] = tested on: Chinese hamster V79-379 cells; assay: Growth delay of V79 cultures after red light (Table 1); format: cell-based; conditions: for Growth Delay, efficiency relative to 1 μM AlPcCl: 18 h, 12 kJ/m^2 red light; for inhibition of V79 culture growth (in words): red light 12 kJ/m^2, three day period
Protocol: as §1, §2
At the time of light exposure, there were approximately 1.5×10^5 cells per 25 cm^2 flask. Following irradiation, the HBSS was replaced by 10 ml of fresh complete growth medium, and the cultures were returned to the 37° C. incubator. At various times before and after irradiation, duplicate cultures were trypsinized and counted. Controls included untreated cells and cells treated with light alone or drug alone. In addition, in each experiment, the drug to be tested was compared to a standard treatment, i.e. 1 μM AlPcCl for 18 hours followed by 12 kJ/m^2 light.
The inhibition of V79 culture growth was measured during a three day period following red light irradiation (12 kJ/m^2) of phthalocyanine-pretreated cells. With each of the active compounds, as well as with AlPcCl, there was an initial decrease in cell density, as dead cells became detached from the monolayer. Thereafter, the cell number per flask increased, as living cells grew and divided. The time for the cell density to recover to the level at the time of light exposure was considered the growth delay. […] The ratio of the growth delay for the test photosensitizer and the growth delay for AlPcCl measured in the same experiment is recorded in Table 1.

[10] = tested on: Chinese hamster V79-379 cells; assay: Uptake of phthalocyanines by V79 cells relative to AlPcCl (Table 1); format: cell-based
Protocol: as §1
Total uptake was determined by scraping the phthalocyanine-treated monolayer, collecting the cells on a glass-fiber filter, and extracting the phthalocyanine in ethanol, as previously described by Ramakrishnan, et al., 1989. (Ramakrishnan, N., M. E. Clay, M. F. Horng, A. R. Antunez, & H. H. Evans, "DNA Lesions and DNA Degradation in Mouse Lymphoma L5178Y Cells After Photodynamic Treatment Sensitized by Chloroaluminum Phthalocyanine",Photochem. Photobiol, in press, 1989). The amount of drug was determined by absorption at 674 nm and expressed relative to the number of cells, as measured in a Coulter cell counter on an aliquot of the cell population. Controls included cells not treated with drug, medium alone, and drug-containing medium without cells. The results of the total uptake of the various compositions of the present invention in comparison to AlPcCl are set forth below in Table 1.
as §2
All of the compounds have been examined for the extent of cellular uptake after exposure of V79 cells to 1 μM or less in complete medium, and the data of Table 1 are presented relative to the uptake from 1 μM AlPcCl, which was 0.723±0.172 nmole/10^7 cells (mean ±S. D., 25 determinations). […] In particular, when the concentration of Compound IV was 1 μM in the medium, the uptake into the cells was sufficiently high that some of the uptake and phototoxicity studies were repeated at 0.5 μM.

## CCCCCCCCCCCC[N+](C)(C)CCC[Si](C)(C)O[Si]1(O[Si](C)(C)CCC[N+](C)(C)CCCCCCCCCCCC)n2c3c4ccccc4c2N=C2N=C(N=c4c5ccccc5c(n41)=NC1=NC(=N3)c3ccccc31)c1ccccc12 [Compound XIV, SiPc[OSi(CH3)2 (CH2)3 N^+ (CH3)2 (CH2)11 CH3]2 2I^-]
[1]
  purging viruses from blood and/or blood components: effective at purging viruses from blood and/or blood components
[2]
  induction of apoptosis: did not induce apoptosis
[3]; 1 μM
  Uptake into V79 cells: 0.03 ± 0.01 n Moles/10^6 cells
[3]; 4 μM
  Uptake into V79 cells: 0.05 ± 0.01 n Moles/10^6 cells
[3]; average of all data
  Uptake into V79 cells, composite value: < 0.05 n Moles/10^6 cells/μM
[3]; repeated in Table 3
  Uptake (from Table 2): < 0.05 n Moles/10^6 cells/μM
[4]; Cricetulus griseus, V79, read-out: Maximum Effect (% survival)
  Cell survival at highest light dose at 1 µM: 93%

## CCCCCCCCCCCC[N+](C)(C)CCC[Si](C)(C)[O][Al]1[n]2c3c4ccccc4c2N=C2N=C(N=c4c5ccccc5c([n]41)=NC1=NC(=N3)c3ccccc31)c1ccccc12.[I-] [Compound XXI, AlPcOSi(CH3)2 (CH2)3 N^+ (CH3)2)(CH2)11 CH3 I^-]
[5]
  Uptake into V79 cells, composite value: 1.3 n Moles/10^6 cells/μM
  uptake by V79 cells (in words): taken up particulary well
[1]
  purging viruses from blood and/or blood components: effective at purging viruses from blood and/or blood components
[2]
  Minimum Demonstrated Condition to induce apoptosis: C × F: 7.5 μm × kJ/m^2
  Minimum Demonstrated Condition to induce apoptosis: Fluence: 15.0 kJ/m^2
[4]; 0.5 μM, 18 h, light dose killing 90% of cells
  LD 90: 15 kJ/m^2

## CN(C)CCCN(CCCN(C)C)CCC[Si](C)(C)O[Si]1(C)n2c3c4ccccc4c2N=C2N=C(N=c4c5ccccc5c(n41)=NC1=NC(=N3)c3ccccc31)c1ccccc12 (centres unmarked) [CH3 SiPcOSi(CH3)2 (CH2)3 N[(CH2)3 N(CH3)2]2]
[6]
  photolysis of solutions: rapidly photolyzed by white light

## CN1CCN(CCC[Si](C)(C)O[Si]2(O[Si](C)(C)CCCN3CCN(C)CC3)n3c4c5ccccc5c3N=C3N=C(N=c5c6ccccc6c(n52)=NC2=NC(=N4)c4ccccc42)c2ccccc23)CC1 [Compound XXX, SiPc[OSi(CH3)2 (CH2)3 NC4 H8 NCH3]2]
[2]; DMF-Tween 80
  Minimum Demonstrated Condition to induce apoptosis: C × F: 7.5 μm × kJ/m^2
  Minimum Demonstrated Condition to induce apoptosis: Fluence: 15.0 kJ/m^2
[7]
  solubility: < 500 µM
  solubility in DMF: not soluble in DMF
[4]; Cricetulus griseus, V79, concentration not given, at 10 kJ/m^2, read-out: Maximum Effect (% survival)
  Cell survival at highest light dose: 30%

## CCN(CCC[Si](C)(C)O[Si]1(C)n2c3c4ccccc4c2N=C2N=C(N=c4c5ccccc5c(n41)=NC1=NC(=N3)c3ccccc31)c1ccccc12)CCN(C)C (centres unmarked) [CH3 SiPcOSi(CH3)2 (CH2)3 N(CH2 CH3)(CH2)2 N(CH3)2]
[6]
  photolysis of solutions: rapidly photolyzed by white light

## CN(C)CCC[Si](C)(C)O[Si]1(C)n2c3c4ccccc4c2N=C2N=C(N=c4c5ccccc5c(n41)=NC1=NC(=N3)c3ccccc31)c1ccccc12 (centres unmarked) [Compound III, CH3 SiPcOSi(CH3)2 (CH2)3 N(CH3)2]
[8]
  photosensitizing efficiency / photocytotoxicity (in words): low activity
[9]
  Growth Delay, efficiency relative to 1 μM AlPcCl: 0.05
  inhibition of V79 culture growth (in words): less inhibition of culture growth
[6]
  photolysis of solutions: rapidly photolyzed by white light

## C[Si](C)(CCCN1CCNCC1)O[Si]1(O[Si](C)(C)CCCN2CCNCC2)n2c3c4ccccc4c2N=C2N=C(N=c4c5ccccc5c(n41)=NC1=NC(=N3)c3ccccc31)c1ccccc12 [Compound XXXII, SiPc[OSi(CH3)2 (CH2)3 NC4 H8 NH]2]
[2]; DMF-Tween 80
  Minimum Demonstrated Condition to induce apoptosis: C × F: 2.5 μm × kJ/m^2
  Minimum Demonstrated Condition to induce apoptosis: Fluence: 5 kJ/m^2
[7]
  solubility in DMF: not soluble in DMF

## CN(C)CCC[Si](C)(C)[O][Al]1[n]2c3c4ccccc4c2N=C2N=C(N=c4c5ccccc5c([n]41)=NC1=NC(=N3)c3ccccc31)c1ccccc12 [Compound I, AlPcOSi(CH3)2 (CH2)3 N(CH3)2]
[8]; 1.0 μM, 18 h, CF10 = intracellular concentration x fluence reducing survival to 10%
  CF10 (AlPcCl)/CF10 (Pc): 0.51
[8]; 1.0 μM, 18 h, F10 = fluence reducing survival to 10%
  F10 (AlPcCl)/F10 (Pc): 0.94
[8]; V79 cells, red light
  photosensitizing efficiency / photocytotoxicity (in words): nearly as efficient photosensitizers as AlPcCl
[9]
  Growth Delay, efficiency relative to 1 μM AlPcCl: 2.1
  inhibition of V79 culture growth (in words): substantial inhibition
[10]; 1.0 μM, 18 h
  Uptake, efficiency relative to 1 μM AlPcCl: 2.3
[10]; V79 cells, 1 μM or less, compared with AlPcCl
  cellular uptake (in words): taken up into the cells more efficiently than was AlPcCl
[7]
  solubility in solvents: soluble in CH2 Cl2 and toluene

## C[N+](C)(C)CCC[Si](C)(C)O[Si]1(O[Si](C)(C)CCC[N+](C)(C)C)n2c3c4ccccc4c2N=C2N=C(N=c4c5ccccc5c(n41)=NC1=NC(=N3)c3ccccc31)c1ccccc12.[I-].[I-] [Compound VI, SiPc[OSi(CH3)2 (CH2)3 N(CH3)3)^+ I^- ]2]
[8]
  photosensitizing efficiency / photocytotoxicity (in words): low activity
[9]
  Growth Delay, efficiency relative to 1 μM AlPcCl: 0.05
  inhibition of V79 culture growth (in words): less inhibition of culture growth
[1]
  purging viruses from blood and/or blood components: effective at purging viruses from blood and/or blood components
[2]
  induction of apoptosis: did not induce apoptosis

## CN1CCN(CCC[Si](C)(C)O[Si]2(C)n3c4c5ccccc5c3N=C3N=C(N=c5c6ccccc6c(n52)=NC2=NC(=N4)c4ccccc42)c2ccccc23)CC1 (centres unmarked) [CH3 SiPcOSi(CH3)2 (CH2)3 NC4 H8 NCH3]
[6]
  photolysis of solutions: rapidly photolyzed by white light

Source: US5484778A, “Phthalocyanine photosensitizers for photodynamic therapy and methods for their use” (priority 1993, dated 1996)
